24 molecules from US7226923B2, “Phthalazinone derivatives” (Hoffman-La Roche Inc., priority 2004, dated 2007) can be followed below.

One experiment deals with HCT 116 cells. Briefly: CellTiter-Glo assay in HCT 116 cells. In kind it is cell-based, human. As to conditions: Homo sapiens, HCT-116, 120 h, 5 days incubation, 30 μM to 0.0015 μM. The method, boiled down: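 Cells seeded at 1000/well in RPMI 1640 with 5% FCS, grown 24 h at 37 °C, then treated with 10 concentrations from 30 μM to 0.0015 μM (1:3 dilutions). After 5 days viability was read as ATP-based luminescence (CellTiter-Glo) following 30 min room-temperature equilibration and lysis.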
For orientation: ATP-based viability assays read luminescence as a measure of living cells.

In a further experiment the target is T1, Aurora A (Homo sapiens, UniProt O14965).
T1 construct: C-terminally Histidine4 (His4)-tagged Aurora A full-length protein
T1 sequence (O14965 1-403): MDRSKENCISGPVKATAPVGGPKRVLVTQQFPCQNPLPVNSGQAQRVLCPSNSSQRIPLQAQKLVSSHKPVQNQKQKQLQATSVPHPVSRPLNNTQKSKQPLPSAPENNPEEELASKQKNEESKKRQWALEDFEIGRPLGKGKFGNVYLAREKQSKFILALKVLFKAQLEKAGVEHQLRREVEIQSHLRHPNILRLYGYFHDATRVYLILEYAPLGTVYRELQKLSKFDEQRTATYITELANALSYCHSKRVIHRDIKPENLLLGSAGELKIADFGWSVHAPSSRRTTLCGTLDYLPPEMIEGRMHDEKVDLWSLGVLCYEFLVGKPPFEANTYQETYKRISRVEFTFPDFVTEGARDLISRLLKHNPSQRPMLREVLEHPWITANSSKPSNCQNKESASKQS
As to the kind of experiment: IC50 determination for inhibitors of Aurora A (96 MTP-ELISA). The format is biochemical. As to conditions: His4-tagged full-length Aurora A 250 ng/ml, PKB-GSK2 200 nM, ATP 4 μM, 90 min at room temperature, read-out: IC50 Aurora A kinase inhibition. In general terms: In an ELISA, binding on a coated surface is turned into a signal by an enzyme label.

pIC50: −log10 of the molar value.

As to `Cc1cc(Nc2nn(-c3ccc(C(C)(C)C)cc3)c(=O)c3cc([N+](=O)[O-])ccc23)[nH]n1` [Example ZB-3, 2-(4-tert-Butyl-phenyl)-4-(5-methyl-2H-pyrazol-3-ylamino)-7-nitro-2H-phthalazin-1-one], the figures for the negative logarithm of the IC50 (pIC50) in the experiment on HCT 116 cells and on Aurora A were 5.00 to 7.00 and 7.00 to 9.00, respectively.
In the case of `Cc1cc(Nc2nn(C(C)C)c(=O)c3cc(F)ccc23)n[nH]1` [Example E-2, 7-Fluoro-2-isopropyl-4-(5-methyl-1H-pyrazol-3-ylamino)-2H-phthalazin-1-one], the pIC50 with HCT 116 cells was 5.00 to 7.00; at Aurora A it was 7.00 to 9.00.
In the same order, the values of `CC(=O)N1CCN(C(=O)c2ccc3c(Nc4cc(C)[nH]n4)nn(C(C)C)c(=O)c3c2)CC1` [Example M-7, 7-(4-Acetyl-piperazine-1-carbonyl)-2-isopropyl-4-(5-methyl-1H-pyrazol-3-ylamino)-2H-phthalazin-1-one] are 4.00 to 5.00 and 7.00 to 9.00.
In the same order, the values of `Cc1cc(Nc2nn(Cc3csc(C)n3)c(=O)c3ccccc23)n[nH]1` [Example A-16, 4-(5-Methyl-1H-pyrazol-3-ylamino)-2-(2-methyl-thiazol-4-ylmethyl)-2H-phthalazin-1-one] are 5.00 to 7.00 and 6.00 to 7.00.
Regarding `Cc1cc(Nc2nn(CC(=O)c3ccccc3)c(=O)c3ccccc23)n[nH]1` [Example E-9, 4-(5-Methyl-1H-pyrazol-3-ylamino)-2-(2-oxo-2-phenyl-ethyl)-2H-phthalazin-1-one], the negative logarithm of the IC50 (pIC50) was 5.00 to 7.00 in the experiment on HCT 116 cells and 7.00 to 9.00 at Aurora A.
Taken in the same sequence, the figures for `Cc1cc(Nc2nn(CC(=O)c3ccc(OC(F)(F)F)cc3)c(=O)c3ccccc23)n[nH]1` [Example E-6, 4-(5-Methyl-1H-pyrazol-3-ylamino)-2-[2-oxo-2-(4-trifluoromethoxy-phenyl)-ethyl]-2H-phthalazin-1-one] were 4.00 to 5.00 and 6.00 to 7.00.
Taken in the same sequence, the figures for `Cc1cc(Nc2nn(-c3ccc([N+](=O)[O-])cc3)c(=O)c3ccccc23)n[nH]1` [Example W-3, 4-(5-Methyl-1H-pyrazol-3-ylamino)-2-(4-nitro-phenyl)-2H-phthalazin-1-one] were 4.00 to 5.00 and 7.00 to 9.00.
Taken in the same sequence, the figures for `Cc1cc(Nc2nn(-c3ccc(N4CCCCC4)cc3)c(=O)c3ccccc23)[nH]n1` [Example V-1, 4-(5-Methyl-2H-pyrazol-3-ylamino)-2-(4-piperidin-1-yl-phenyl)-2H-phthalazin-1-one] were 5.00 to 7.00 and 7.00 to 9.00.
With `CCN(CC)C(=O)c1ccc2c(Nc3cc(C)[nH]n3)nn(C(C)C)c(=O)c2c1` [Example M-3, 3-Isopropyl-1-(5-methyl-1H-pyrazol-3-ylamino)-4-oxo-3,4-dihydro-phthalazine-6-carboxylic acid diethylamide], the pIC50 in the experiment with HCT 116 cells was 5.00 to 7.00; on Aurora A it was 7.00 to 9.00.
Take `COc1ccc2c(Nc3cc(C)[nH]n3)nn(C(C)C)c(=O)c2c1` [Example G-1, 2-Isopropyl-4-(5-methyl-1H-pyrazol-3-ylamino)-7-methoxy-2H-phthalazin-1-one]: the pIC50 was 5.00 to 7.00 in the experiment on HCT 116 cells and 7.00 to 9.00 on Aurora A.
For the molecule `Cc1cc(Nc2nn(-c3ccc(Nc4ccccc4)cc3)c(=O)c3ccccc23)n[nH]1` [Example U-1, 4-(5-Methyl-1H-pyrazol-3-ylamino)-2-(4-phenylamino-phenyl)-2H-phthalazin-1-one], the figures for the pIC50 in the experiment on HCT 116 cells and on Aurora A were 5.00 to 7.00 and 7.00 to 9.00, respectively.
Taken in the same sequence, the figures for `Cc1cc(Nc2nn(-c3ccc(NC(=O)c4ccccc4)cc3)c(=O)c3ccccc23)n[nH]1` [Example T-4, N-{4-[4-(5-Methyl-1H-pyrazol-3-ylamino)-1-oxo-1H-phthalazin-2-yl]-phenyl}-benzamide] were 5.00 to 7.00 and 6.00 to 7.00.
Taken in the same sequence, the figures for `Cc1cc(Nc2nn(C(C)C)c(=O)c3cc(CO)ccc23)n[nH]1` [Example M-9, 7-Hydroxymethyl-2-isopropyl-4-(5-methyl-1H-pyrazol-3-ylamino)-2H-phthalazin-1-one] were 5.00 to 7.00 and 7.00 to 9.00.
Regarding `Cc1cc(Nc2nn(-c3ccc(C(C)C)cc3)c(=O)c3ccccc23)[nH]n1` [Example P-1, 2-(4-Isopropyl-phenyl)-4-(5-methyl-2H-pyrazol-3-ylamino)-2H-phthalazin-1-one], the results for the pIC50 with HCT 116 cells and at Aurora A were 5.00 to 7.00 and 7.00 to 9.00, respectively.
Taken in the same sequence, the figures for `Cc1cc(Nc2nn(C(C)C)c(=O)c3cc(CN4CCOCC4)ccc23)n[nH]1` [Example L-2, 2-Isopropyl-4-(5-methyl-1H-pyrazol-3-ylamino)-7-morpholin-4-ylmethyl-2H-phthalazin-1-one] were 5.00 to 7.00 and 7.00 to 9.00.
In the same order, the values of `Cc1cc(Nc2nn(C(C)C)c(=O)c3c(N(C)C)cccc23)n[nH]1` [Example F-8, 2-Isopropyl-4-(5-methyl-1H-pyrazol-3-ylamino)-8-dimethylamino-2H-phthalazin-1-one] are 6.38 and 7.00 to 9.00.
Taken in the same sequence, the figures for `Cc1cc(Nc2nn(-c3ccccc3)c(=O)c3ccc(N)cc23)n[nH]1` [Example Z-1, 6-Amino-4-(5-methyl-1H-pyrazol-3-ylamino)-2-phenyl-2H-phthalazin-1-one] were 5.00 to 7.00 and 6.00 to 7.00.
Take `Cc1cc(Nc2nn(C(C)C)c(=O)c3cc(C(=O)N4CCOCC4)ccc23)n[nH]1` [Example M-2, 2-Isopropyl-4-(5-methyl-1H-pyrazol-3-ylamino)-7-(morpholine-4-carbonyl)-2H-phthalazin-1-one]: the negative-log IC50 (pIC50) is 5.00 to 7.00 with HCT 116 cells and 7.00 to 9.00 on Aurora A.
As for `Cc1cc(Nc2nn(C(C)C)c(=O)c3cc(N(C)Cc4ccccn4)ccc23)n[nH]1` [Example I-4, 2-Isopropyl-4-(5-methyl-1H-pyrazol-3-ylamino)-7-(methyl-pyridin-2-ylmethyl-amino)-2H-phthalazin-1-one], the figures for the negative-log IC50 (pIC50) in the experiment with HCT 116 cells and on Aurora A were 5.00 to 7.00 and 7.00 to 9.00, respectively.
Taken in the same sequence, the figures for `Cc1cc(Nc2nn(-c3ccccc3Cl)c(=O)c3ccccc23)n[nH]1` [Example R-4, 2-(2-Chloro-phenyl)-4-(5-methyl-1H-pyrazol-3-ylamino)-2H-phthalazin-1-one] were 5.00 to 7.00 and 7.00 to 9.00.
Consider `COc1cccc(Cn2nc(Nc3cc(C)[nH]n3)c3ccccc3c2=O)c1` [Example A-12, 2-(3-Methoxy-benzyl)-4-(5-methyl-1H-pyrazol-3-ylamino)-2H-phthalazin-1-one], for which the pIC50 was 5.00 to 7.00 with HCT 116 cells and 7.00 to 9.00 at Aurora A.
As for `Cc1cc(Nc2nn(Cc3ccc(F)cc3)c(=O)c3ccccc23)n[nH]1` [Example A-20, 2-(4-Fluoro-benzyl)-4-(5-methyl-1H-pyrazol-3-ylamino)-2H-phthalazin-1-one], the results for the pIC50 with HCT 116 cells and on Aurora A were 5.00 to 7.00 and 7.00 to 9.00, respectively.
Taken in the same sequence, the figures for `CNC(=O)c1ccc(-n2nc(Nc3cc(C)[nH]n3)c3ccccc3c2=O)cc1` [Example S-1, N-Methyl-4-[4-(5-methyl-1H-pyrazol-3-ylamino)-1-oxo-1H-phthalazin-2-yl]-benzamide] were 5.00 to 7.00 and 6.00 to 7.00.
Taken in the same sequence, the figures for `Cc1cc(Nc2nn(-c3ccc(C(F)(F)F)cc3)c(=O)c3ccccc23)n[nH]1` [Example A-25, 4-(5-Methyl-1H-pyrazol-3-ylamino)-2-(4-trifluoromethyl-phenyl)-2H-phthalazin-1-one] were 5.00 to 7.00 and 7.00 to 9.00.

One may read the pIC50 as the IC50 on a negative log10 scale, so that one unit is a factor of ten.
